The values that follow come from patent US11034650B2, “Compounds useful for treating a Mannheimia haemolytica or Histophilus somni infection” (Intervet Inc., priority 2016, dated 2021).

Values after ≈ are worked out from the molar mass of the structure shown.

One experiment has as its system Mannheimia haemolytica MH 13093 (XB0472-6014.1, BRD field isolate). As to the kind of experiment: MIC, broth-microdilution (CLSI VET01-A4), strain MH 13093. Format: cell-based. As to conditions: Mannheimia haemolytica strain MH 13093, broth-microdilution; unit assumed. In short, it runs like this: (§1)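 MIC recorded as the lowest drug level giving no growth visible to the naked eye, from two-fold serial dilutions. Interpretation followed VET01-S3.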
For orientation: In broth dilution the organism is exposed to a series of concentrations in liquid medium.
`CC(C)(O)[C@H](NC(=O)c1ccc(C#Cc2ccc(CNCc3ccccc3)nc2)cc1)C(=O)NO` [Compound 327] gave an MIC MH 13093 of 0.8 µg/mL (≈ 1.69 µM).
The compound `CC(C)([C@H](NC(=O)c1ccc(C#Cc2ccc(CNCc3ccccn3)s2)cc1)C(=O)NO)S(C)(=O)=O` [Compound 320] gave an MIC MH 13093 of 0.4 µg/mL (≈ 0.74 µM).
`CC(C)([C@H](NC(=O)c1ccc(C#Cc2ccc(CNCC#N)nc2)cc1)C(=O)NO)S(C)(=O)=O` [Compound 372] came in with an MIC MH 13093 of 25 µg/mL (≈ 51.7 µM).

For the next experiment, the system named is Pasteurella multocida PM 6267 (P 2225 (L386), reference strain, mouse infection strain). The experiment can be described thus: MIC, broth-microdilution (CLSI VET01-A4), strain PM 6267. Type of experiment: cell-based. The following applies: Pasteurella multocida strain PM 6267, broth-microdilution; unit assumed. In short, it runs like this:
as §1
`CC(C)(O)[C@H](NC(=O)c1ccc(C#Cc2ccc(CNCc3ccccc3)nc2)cc1)C(=O)NO` [Compound 327] gave an MIC PM 6267 of 0.4 µg/mL (≈ 0.846 µM).
Compound `CC(C)([C@H](NC(=O)c1ccc(C#Cc2ccc(CNCc3ccccn3)s2)cc1)C(=O)NO)S(C)(=O)=O` [Compound 320] showed an MIC PM 6267 of 0.2 µg/mL (≈ 0.37 µM).
As to `CC(C)([C@H](NC(=O)c1ccc(C#Cc2ccc(CNCC#N)nc2)cc1)C(=O)NO)S(C)(=O)=O` [Compound 372], the MIC PM 6267 amounted to 1.6 µg/mL (≈ 3.31 µM).

The next experiment deals with Mannheimia haemolytica MH 12587 (1071, BRD field isolate, macrolide-resistance: erm+, E+). The experiment can be described thus: MIC, broth-microdilution (CLSI VET01-A4), strain MH 12587. Type of experiment: cell-based. The following applies: Mannheimia haemolytica strain MH 12587, broth-microdilution; unit assumed. A digest of the protocol: as §1
In turn, `CC(C)(O)[C@H](NC(=O)c1ccc(C#Cc2ccc(CNCc3ccccc3)nc2)cc1)C(=O)NO` [Compound 327] registered an MIC MH 12587 of 1.6 µg/mL (≈ 3.39 µM).
`CC(C)([C@H](NC(=O)c1ccc(C#Cc2ccc(CNCc3ccccn3)s2)cc1)C(=O)NO)S(C)(=O)=O` [Compound 320] displayed an MIC MH 12587 of 0.8 µg/mL (≈ 1.48 µM).
The compound `CC(C)([C@H](NC(=O)c1ccc(C#Cc2ccc(CNCC#N)nc2)cc1)C(=O)NO)S(C)(=O)=O` [Compound 372] displayed an MIC MH 12587 of 25 µg/mL (≈ 51.7 µM).

In a further experiment the test system is Mannheimia haemolytica MH 13065 (XB0446-6003.9, BRD field isolate). The experiment can be described thus: MIC, broth-microdilution (CLSI VET01-A4), strain MH 13065. The following applies: Mannheimia haemolytica strain MH 13065, broth-microdilution; unit assumed. Format: cell-based. A digest of the protocol: as §1
`CC(C)(O)[C@H](NC(=O)c1ccc(C#Cc2ccc(CNCc3ccccc3)nc2)cc1)C(=O)NO` [Compound 327] yielded an MIC MH 13065 of 0.4 µg/mL (≈ 0.846 µM).
For the compound `CC(C)([C@H](NC(=O)c1ccc(C#Cc2ccc(CNCc3ccccn3)s2)cc1)C(=O)NO)S(C)(=O)=O` [Compound 320], the MIC MH 13065 was found to be 0.2 µg/mL (≈ 0.37 µM).
Take `CC(C)([C@H](NC(=O)c1ccc(C#Cc2ccc(CNCC#N)nc2)cc1)C(=O)NO)S(C)(=O)=O` [Compound 372]: the MIC MH 13065 was 12.5 µg/mL (≈ 25.9 µM).

The test system of the next experiment is Mannheimia haemolytica MH 6357 (M7/2, reference strain, cattle infection strain). The experiment can be described thus: MIC, broth-microdilution (CLSI VET01-A4), strain MH 6357. Type of experiment: cell-based. As to conditions: Mannheimia haemolytica strain MH 6357, broth-microdilution; unit assumed. A digest of the protocol: as §1
As for `CC(C)(O)[C@H](NC(=O)c1ccc(C#Cc2ccc(CNCc3ccccc3)nc2)cc1)C(=O)NO` [Compound 327], the MIC MH 6357 was determined as 0.8 µg/mL (≈ 1.69 µM).
For the compound `CC(C)([C@H](NC(=O)c1ccc(C#Cc2ccc(CNCc3ccccn3)s2)cc1)C(=O)NO)S(C)(=O)=O` [Compound 320], the MIC MH 6357 was 0.2 µg/mL (≈ 0.37 µM).
Take `CC(C)([C@H](NC(=O)c1ccc(C#Cc2ccc(CNCC#N)nc2)cc1)C(=O)NO)S(C)(=O)=O` [Compound 372]: the MIC MH 6357 came to 6.3 µg/mL (≈ 13 µM).

For the next experiment, the system named is Pasteurella multocida PM 6391 (ATCC 43137, reference strain). As to the kind of experiment: MIC, broth-microdilution (CLSI VET01-A4), strain PM 6391. As to conditions: Pasteurella multocida strain PM 6391, broth-microdilution; unit assumed. Format: cell-based. A digest of the protocol:
as §1
`CC(C)(O)[C@H](NC(=O)c1ccc(C#Cc2ccc(CNCc3ccccc3)nc2)cc1)C(=O)NO` [Compound 327] returned an MIC PM 6391 of at most 0.1 µg/mL.
Same read-out and setting: then `CC(C)([C@H](NC(=O)c1ccc(C#Cc2ccc(CNCc3ccccn3)s2)cc1)C(=O)NO)S(C)(=O)=O` [Compound 320], with at most 0.1 µg/mL; and `CC(C)([C@H](NC(=O)c1ccc(C#Cc2ccc(CNCC#N)nc2)cc1)C(=O)NO)S(C)(=O)=O` [Compound 372], with 1.6 µg/mL (≈ 3.31 µM).

The next experiment has as its system Mannheimia haemolytica MH 6374 (ATCC 33396, reference strain). As to the kind of experiment: MIC, broth-microdilution (CLSI VET01-A4), strain MH 6374. Type of experiment: cell-based. The following applies: Mannheimia haemolytica strain MH 6374, broth-microdilution; unit assumed. A digest of the protocol:
as §1
For `CC(C)(O)[C@H](NC(=O)c1ccc(C#Cc2ccc(CNCc3ccccc3)nc2)cc1)C(=O)NO` [Compound 327], the MIC MH 6374 was determined as 0.8 µg/mL (≈ 1.69 µM).
Still for that read-out and setting: to `CC(C)([C@H](NC(=O)c1ccc(C#Cc2ccc(CNCc3ccccn3)s2)cc1)C(=O)NO)S(C)(=O)=O` [Compound 320] belongs at most 0.1 µg/mL; to `CC(C)([C@H](NC(=O)c1ccc(C#Cc2ccc(CNCC#N)nc2)cc1)C(=O)NO)S(C)(=O)=O` [Compound 372], 12.5 µg/mL (≈ 25.9 µM).

The next experiment deals with Pasteurella multocida PM 10775 (080130003051, BRD field isolate). The experiment can be described thus: MIC, broth-microdilution (CLSI VET01-A4), strain PM 10775. Format: cell-based. The following applies: Pasteurella multocida strain PM 10775, broth-microdilution; unit assumed. In short, it runs like this: as §1
Compound `CC(C)(O)[C@H](NC(=O)c1ccc(C#Cc2ccc(CNCc3ccccc3)nc2)cc1)C(=O)NO` [Compound 327] yielded an MIC PM 10775 of at most 0.1 µg/mL.
Compound `CC(C)([C@H](NC(=O)c1ccc(C#Cc2ccc(CNCc3ccccn3)s2)cc1)C(=O)NO)S(C)(=O)=O` [Compound 320] showed an MIC PM 10775 of at most 0.1 µg/mL.
On to `CC(C)([C@H](NC(=O)c1ccc(C#Cc2ccc(CNCC#N)nc2)cc1)C(=O)NO)S(C)(=O)=O` [Compound 372], for which the MIC PM 10775 worked out at 0.4 µg/mL (≈ 0.827 µM).

The subject of another experiment is Pasteurella multocida PM 12080 (IV102277-0093, BRD field isolate). The experiment can be described thus: MIC, broth-microdilution (CLSI VET01-A4), strain PM 12080. Type of experiment: cell-based. As to conditions: Pasteurella multocida strain PM 12080, broth-microdilution; unit assumed. In short, it runs like this: as §1
In the case of `CC(C)(O)[C@H](NC(=O)c1ccc(C#Cc2ccc(CNCc3ccccc3)nc2)cc1)C(=O)NO` [Compound 327], the MIC PM 12080 was at most 0.1 µg/mL.
`CC(C)([C@H](NC(=O)c1ccc(C#Cc2ccc(CNCc3ccccn3)s2)cc1)C(=O)NO)S(C)(=O)=O` [Compound 320] returned an MIC PM 12080 of at most 0.1 µg/mL.
Turning to `CC(C)([C@H](NC(=O)c1ccc(C#Cc2ccc(CNCC#N)nc2)cc1)C(=O)NO)S(C)(=O)=O` [Compound 372], the MIC PM 12080 was 0.8 µg/mL (≈ 1.65 µM).

The subject of another experiment is Mannheimia haemolytica MH 10720 (154, BRD field isolate). The experiment can be described thus: MIC, broth-microdilution (CLSI VET01-A4), strain MH 10720. As to conditions: Mannheimia haemolytica strain MH 10720, broth-microdilution; unit assumed. Format: cell-based. In short, it runs like this: as §1
`CC(C)(O)[C@H](NC(=O)c1ccc(C#Cc2ccc(CNCc3ccccc3)nc2)cc1)C(=O)NO` [Compound 327] had an MIC MH 10720 of at most 0.1 µg/mL.
Compound `CC(C)([C@H](NC(=O)c1ccc(C#Cc2ccc(CNCc3ccccn3)s2)cc1)C(=O)NO)S(C)(=O)=O` [Compound 320] had an MIC MH 10720 of at most 0.1 µg/mL.
In turn, `CC(C)([C@H](NC(=O)c1ccc(C#Cc2ccc(CNCC#N)nc2)cc1)C(=O)NO)S(C)(=O)=O` [Compound 372] displayed an MIC MH 10720 of 3.1 µg/mL (≈ 6.41 µM).
